Structures are written as SMILES. Bridge positions count the residues as written; N and C are the ends. Square brackets hold non-standard residues; d marks the D form. Peptide text beside a SMILES is read from it. * marks the point of attachment. hPhe(3,5-F2-4-CF3) = N[C@@H](CCc1cc(F)c(C(F)(F)F)c(F)c1)C(=O)O; hPhe(3-Cl-4-CF3) = N[C@@H](CCc1ccc(C(F)(F)F)c(Cl)c1)C(=O)O; NEtPhe(4-CF3) = CCN[C@@H](Cc1ccc(C(F)(F)F)cc1)C(=O)O; NMePhe(4-CF3) = CN[C@@H](Cc1ccc(C(F)(F)F)cc1)C(=O)O; 3Oxa8azabicyclo(3.2.1)octane = C1CC2COCC1N2*; NEtPhe(4-Me) = CCN[C@@H](Cc1ccc(C)cc1)C(=O)O; NMeAbu(4,4,4-F3) = CN[C@@H](CC(F)(F)F)C(=O)O; NMePhe(4-Me) = CN[C@@H](Cc1ccc(C)cc1)C(=O)O; NMeAla(cPent) = CN[C@@H](CC1CCCC1)C(=O)O; NMeGly(cPent) = CN[C@H](C(=O)O)C1CCCC1; Pro(4,4-F2) = O=C(O)[C@@H]1CC(F)(F)CN1; NMeCha = CN[C@@H](CC1CCCCC1)C(=O)O; NMehLeu = CN[C@@H](CCC(C)C)C(=O)O; Hyp = O=C(O)[C@@H]1C[C@@H](O)CN1; NMeChg = CN[C@H](C(=O)O)C1CCCCC1; NMeI = CC[C@H](C)[C@H](NC)C(=O)O; NMeD = CN[C@@H](CC(=O)O)C(=O)O; NMeL = CN[C@@H](CC(C)C)C(=O)O; d(β3hA) = C[C@@H](N)CC(=O)O; Morpholide = C1CN(*)CCO1; NMeA = CN[C@@H](C)C(=O)O; Pyrrolidide = C1CCN(*)C1; Ac5c = NC1(C(=O)O)CCCC1; Aze = O=C(O)[C@@H]1CCN1; Sar = CNCC(=O)O

Data on 15 compounds can be found in patent publication US20240148821A1, “PHARMACEUTICAL USE OF CYCLIC PEPTIDE COMPOUND” (CHUGAI SEIYAKU KABUSHIKI KAISHA, priority 2021, published 2024).

Test [1] concerns the target protein-protein interaction between Kras and SOS1 (biotin-tagged human Kras loaded with GDP, His-tagged human SOS1) (Homo sapiens (Human), UniProt P01116, G12D). Put plainly: Protein-protein interaction inhibition between Kras and SOS1 (KrasG12D-SOS PPI) using AlphaScreen.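 Also: kras produced in E. coli, Ni-coupled donor beads and streptavidin acceptor beads, excitation 680 nm with emission detected at 520–620 nm via singlet oxygen transfer.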 It counts as biochemical. As to conditions: AlphaScreen; biotin-tagged human Kras loaded with GDP, His-tagged human SOS1; read-out: KRAS G12D-SOS PPI IC50.

The test system of test [2] is Human pancreatic cancer cell line AsPC-1 (G12D mutation Kras). Put plainly: AsPC-1 cell growth inhibition (AsPC-1 CGI). It counts as cell-based. Particulars: read-out: AsPC-1 cell growth inhibition, 50% growth inhibitory concentration (IC50 value); 96 hours, CellTiter-Glo, values classified in ranges. (In general: Cellular ATP, detected with luciferase, serves as a proxy for viable cell number.)
Experimental: Test compounds were serially dilated with dimethyl sulfoxide, and 200 nL was then dispensed to a U-bottom 96-well plate using Labcyte Echo. […] The cell suspension was dispensed to a. plate containing a test compound at 100 μL per well and incubated at 37° C. in a 5% carbon dioxide gas incubator. 96 hours later, 80 μL of CellTiter-Glo (Promega) was added to each well and fluorescence was measured.

`CCO[C@@H]1C[C@H]2C(=O)NC3(CCCC3)C(=O)N(C)[C@@H](C3CCCCC3)C(=O)N(C)[C@H](C(=O)N3CCOCC3)CC(=O)N(C)[C@@H](CC(F)(F)F)C(=O)N[C@@H]([C@@H](C)CC)C(=O)N(C)CC(=O)N(C)CC(=O)N(C)[C@@H](Cc3ccc(C(F)(F)F)cc3)C(=O)N(C)CC(=O)N[C@@H](CCc3cc(F)c(C(F)(F)F)c(F)c3)C(=O)N2C1` [Compound 1297] ([NMeAbu(4,4,4-F3)]I[Sar][Sar][NMePhe(4-CF3)][Sar][hPhe(3,5-F2-4-CF3)][Hyp](Et)[Ac5c][NMeChg][NMeD]-Morpholide; lactam N-11): the IC50 in test [1] was 0.51 nM; in test [2] it was not above 20 nM.

With `CC[C@H](C)[C@@H]1NC(=O)[C@H](CC(C)C)N(C)C(=O)C[C@@H](C)NC(=O)[C@H](C2CCCC2)N(C)C(=O)C2(CCCC2)NC(=O)[C@@H]2CCCN2C(=O)[C@H](CCc2ccc(C(F)(F)F)c(Cl)c2)NC(=O)CN(C)C(=O)[C@H](C)N(C)C(=O)[C@@H]2CCN2C(=O)[C@H](C)N(C)C1=O` [Compound 1300] (cyclo([Ac5c][NMeGly(cPent)][d(β3hA)][NMeL]I[NMeA][Aze][NMeA][Sar][hPhe(3-Cl-4-CF3)]P)), the values for the IC50 in test [1] and in test [2] were 94 nM and more than 500 nM, respectively.

Regarding `CCO[C@@H]1C[C@H]2C(=O)NC3(CCCC3)C(=O)N(C)[C@@H](C3CCCCC3)C(=O)N(C)[C@H](C(=O)N3CCCC3)CC(=O)N(C)[C@@H](CC(F)(F)F)C(=O)N[C@@H]([C@@H](C)CC)C(=O)N(C)CC(=O)N(C)CC(=O)N(C)[C@@H](Cc3ccc(C)cc3)C(=O)N(C)CC(=O)N[C@@H](CCc3cc(F)c(C(F)(F)F)c(F)c3)C(=O)N2C1` [Compound 1301] ([NMeAbu(4,4,4-F3)]I[Sar][Sar][NMePhe(4-Me)][Sar][hPhe(3,5-F2-4-CF3)][Hyp](Et)[Ac5c][NMeChg][NMeD]-Pyrrolidide; lactam N-11), the IC50 in test [1] was 0.67 nM; in test [2], not above 20 nM.

On to `CC[C@H](C)[C@@H]1NC(=O)[C@H](CC(C)C)N(C)C(=O)C[C@@H](C(=O)N2CCOCC2)N(C)C(=O)[C@H](C2CCCC2)N(C)C(=O)C2(CCCC2)NC(=O)[C@@H]2CCCN2C(=O)[C@H](CCc2cc(F)c(C(F)(F)F)c(F)c2)NC(=O)CN(C)C(=O)[C@H](CC2CCCCC2)N(C)C(=O)[C@@H]2CCN2C(=O)[C@H](C)N(C)C1=O` [Compound 1308] ([NMeL]I[NMeA][Aze][NMeCha][Sar][hPhe(3,5-F2-4-CF3)]P[Ac5c][NMeGly(cPent)][NMeD]-Morpholide; lactam N-11), for which the results for the IC50 in test [1] and in test [2] were 0.65 nM and not above 20 nM, respectively.

As for `CC[C@H](C)[C@@H]1NC(=O)[C@H](CCC(C)C)N(C)C(=O)C[C@@H](C(=O)N2CCCC2)N(C)C(=O)[C@H]([C@@H](C)CC)N(C)C(=O)C2(CCCC2)NC(=O)[C@@H]2CCCN2C(=O)[C@H](CCc2ccc(C(F)(F)F)c(Cl)c2)NC(=O)CN(C)C(=O)[C@H](Cc2ccc(C(F)(F)F)cc2)N(C)C(=O)[C@@H]2CCN2C(=O)[C@H](C)NC1=O` [Compound 1310] ([NMehLeu]IA[Aze][NMePhe(4-CF3)][Sar][hPhe(3-Cl-4-CF3)]P[Ac5c][NMeI][NMeD]-Pyrrolidide; lactam N-11), the IC50 in test [1] was 0.87 nM; in test [2] it was not above 20 nM.

On to `CC[C@H](C)[C@@H]1NC(=O)[C@H](CC(C)C)N(C)C(=O)C[C@@H](C(=O)N2CCOCC2)N(C)C(=O)[C@H]([C@@H](C)CC)N(C)C(=O)C2(CCCC2)NC(=O)[C@@H]2CC(F)(F)CN2C(=O)[C@H](CCc2ccc(C(F)(F)F)c(Cl)c2)NC(=O)CN(C)C(=O)[C@H](Cc2ccc(C(F)(F)F)cc2)N(C)C(=O)[C@@H]2CCN2C(=O)[C@H](C)N(C)C1=O` [Compound 1311] ([NMeL]I[NMeA][Aze][NMePhe(4-CF3)][Sar][hPhe(3-Cl-4-CF3)][Pro(4,4-F2)][Ac5c][NMeI][NMeD]-Morpholide; lactam N-11), for which the IC50 in test [1] is 0.51 nM; in test [2], not above 20 nM.

Take `CC[C@H](C)[C@@H]1NC(=O)[C@H](CC(C)C)N(C)C(=O)C[C@@H](C(=O)N2CCOCC2)N(C)C(=O)[C@H]([C@@H](C)CC)N(C)C(=O)C2(CCCC2)NC(=O)[C@@H]2CCCN2C(=O)[C@H](CCc2ccc(C(F)(F)F)c(Cl)c2)NC(=O)CN(C)C(=O)[C@H](Cc2ccc(C(F)(F)F)cc2)N(CC)C(=O)[C@@H]2CCN2C(=O)[C@H](C)N(C)C1=O` [Compound 1312] ([NMeL]I[NMeA][Aze][NEtPhe(4-CF3)][Sar][hPhe(3-Cl-4-CF3)]P[Ac5c][NMeI][NMeD]-Morpholide; lactam N-11): the IC50 in test [1] was 0.74 nM; in test [2], not above 20 nM.

For `CC[C@H](C)[C@@H]1NC(=O)[C@H](CC(C)C)N(C)C(=O)C[C@@H](C(=O)N2CCCC2)N(C)C(=O)[C@H]([C@@H](C)CC)N(C)C(=O)C2(CCCC2)NC(=O)[C@@H]2CCCN2C(=O)[C@H](CCc2ccc(C(F)(F)F)c(Cl)c2)NC(=O)CN(C)C(=O)[C@H](Cc2ccc(C(F)(F)F)cc2)N(CC)C(=O)[C@@H]2CCN2C(=O)[C@H](C)N(C)C1=O` [Compound 1319] ([NMeL]I[NMeA][Aze][NEtPhe(4-CF3)][Sar][hPhe(3-Cl-4-CF3)]P[Ac5c][NMeI][NMeD]-Pyrrolidide; lactam N-11), the IC50 is 0.82 nM in test [1] and not above 20 nM in test [2].

For `CC[C@H](C)[C@@H]1NC(=O)[C@H](CC2CCCC2)N(C)C(=O)C[C@@H](C(=O)N2CCCC2)N(C)C(=O)[C@H]([C@@H](C)CC)N(C)C(=O)C2(CCCC2)NC(=O)[C@@H]2CCCN2C(=O)[C@H](CCc2ccc(C(F)(F)F)c(Cl)c2)NC(=O)CN(C)C(=O)[C@H](Cc2ccc(C(F)(F)F)cc2)N(C)C(=O)[C@@H]2CCN2C(=O)[C@H](C)NC1=O` [Compound 1320] ([NMeAla(cPent)]IA[Aze][NMePhe(4-CF3)][Sar][hPhe(3-Cl-4-CF3)]P[Ac5c][NMeI][NMeD]-Pyrrolidide; lactam N-11), the IC50 in test [1] was 1.4 nM; in test [2] it was not above 20 nM.

Consider `CC[C@H](C)[C@@H]1NC(=O)[C@H](CC(C)C)N(C)C(=O)C[C@@H](C(=O)N2CCOCC2)N(C)C(=O)[C@H]([C@@H](C)CC)N(C)C(=O)C2(CCCC2)NC(=O)[C@@H]2CCCN2C(=O)[C@H](CCc2ccc(C(F)(F)F)c(Cl)c2)NC(=O)CN(C)C(=O)[C@H](Cc2ccc(C)cc2)N(CC)C(=O)[C@@H]2CCN2C(=O)[C@H](C)N(C)C1=O` [Compound 1322] ([NMeL]I[NMeA][Aze][NEtPhe(4-Me)][Sar][hPhe(3-Cl-4-CF3)]P[Ac5c][NMeI][NMeD]-Morpholide; lactam N-11), for which the IC50 was 0.82 nM in test [1] and not above 20 nM in test [2].

Regarding `CC[C@H](C)[C@@H]1NC(=O)[C@H](CC(C)C)N(C)C(=O)C[C@@H](C(=O)N2CCCC2)N(C)C(=O)[C@H]([C@@H](C)CC)N(C)C(=O)C2(CCCC2)NC(=O)[C@@H]2CCCN2C(=O)[C@H](CCc2ccc(C(F)(F)F)c(Cl)c2)NC(=O)CN(C)C(=O)[C@H](Cc2ccc(C)cc2)N(CC)C(=O)[C@@H]2CCN2C(=O)[C@H](C)N(C)C1=O` [Compound 1325] ([NMeL]I[NMeA][Aze][NEtPhe(4-Me)][Sar][hPhe(3-Cl-4-CF3)]P[Ac5c][NMeI][NMeD]-Pyrrolidide; lactam N-11), the IC50 was 0.96 nM in test [1] and not above 20 nM in test [2].

On to `CCO[C@@H]1C[C@H]2C(=O)NC3(CCCC3)C(=O)N(C)[C@@H]([C@@H](C)CC)C(=O)N(C)[C@H](C(=O)N3CCCC3)CC(=O)N(C)[C@@H](CC(C)C)C(=O)N[C@@H]([C@@H](C)CC)C(=O)N(C)[C@@H](C)C(=O)N3CC[C@H]3C(=O)N(C)[C@@H](Cc3ccc(C(F)(F)F)cc3)C(=O)N(C)CC(=O)N[C@@H](CCc3ccc(C(F)(F)F)c(Cl)c3)C(=O)N2C1` [Compound 1335] ([NMeL]I[NMeA][Aze][NMePhe(4-CF3)][Sar][hPhe(3-Cl-4-CF3)][Hyp](Et)[Ac5c][NMeI][NMeD]-Pyrrolidide; lactam N-11), for which the IC50 in test [1] was 0.49 nM; in test [2], not above 20 nM.

Take `CC[C@H](C)[C@@H]1NC(=O)[C@H](CC(C)C)N(C)C(=O)C[C@@H](C(=O)N2CCOCC2)N(C)C(=O)[C@H](C2CCCC2)N(C)C(=O)C2(CCCC2)NC(=O)[C@@H]2CCCN2C(=O)[C@H](CCc2cc(F)c(C(F)(F)F)c(F)c2)NC(=O)CN(C)C(=O)[C@H](C2CCCC2)N(C)C(=O)[C@@H]2CCN2C(=O)[C@H](C)N(C)C1=O` [Compound 1336] ([NMeL]I[NMeA][Aze][NMeGly(cPent)][Sar][hPhe(3,5-F2-4-CF3)]P[Ac5c][NMeGly(cPent)][NMeD]-Morpholide; lactam N-11): the IC50 is 0.66 nM in test [1] and not above 20 nM in test [2].

For `CCO[C@@H]1C[C@H]2C(=O)NC3(CCCC3)C(=O)N(C)[C@@H](C3CCCCC3)C(=O)N(C)[C@H](C(=O)N3CCCC3)CC(=O)N(C)[C@@H](CC(F)(F)F)C(=O)N[C@@H]([C@@H](C)CC)C(=O)N(C)CC(=O)N(C)CC(=O)N(C)[C@@H](Cc3ccc(C)cc3)C(=O)N(C)CC(=O)N[C@@H](CCc3ccc(C(F)(F)F)c(Cl)c3)C(=O)N2C1` [Compound 1339] ([NMeAbu(4,4,4-F3)]I[Sar][Sar][NMePhe(4-Me)][Sar][hPhe(3-Cl-4-CF3)][Hyp](Et)[Ac5c][NMeChg][NMeD]-Pyrrolidide; lactam N-11), the figures for the IC50 in test [1] and in test [2] were 0.57 nM and not above 20 nM, respectively.

`CCO[C@@H]1C[C@H]2C(=O)NC3(CCCC3)C(=O)N(C)[C@@H](C3CCCCC3)C(=O)N(C)[C@H](C(=O)N3C4CCC3COC4)CC(=O)N(C)[C@@H](CC(C)C)C(=O)N[C@@H]([C@@H](C)CC)C(=O)N(C)CC(=O)N(C)CC(=O)N(C)[C@@H](CC3CCCCC3)C(=O)N(C)CC(=O)N[C@@H](CCc3cc(F)c(C(F)(F)F)c(F)c3)C(=O)N2C1` [Compound 1341] ([NMeL]I[Sar][Sar][NMeCha][Sar][hPhe(3,5-F2-4-CF3)][Hyp](Et)[Ac5c][NMeChg][NMeD]-{3Oxa8azabicyclo(3.2.1)octane}; lactam N-11): the IC50 in test [1] was 0.82 nM; in test [2], not above 20 nM.
